Data from patent publication US9802904B2, “Inhibitors of the USP1/UAF1 deubiquitinase complex and uses thereof” (The United States of America, as represented by the …, priority 2012, dated 2017).

Test system: U2OS cells
Experiment: Cytotoxicity assay in osteosarcoma U2OS cell line
Assay type: cell-based, human
Conditions: Homo sapiens, U2OS; alone; read-out: EC50 of killing U2OS cells
Description: (§1) The H596 [human non-small cell lung cancer (NSCLC)] cell line was cultured in RFMI-1640 medium containing 10% fetal bovine serum (FBS) at 37° C. and 5% CO2. The HEK293T (human embryonic kidney 293T), U2OS (human osteosarcoma), and HCT116 (human colon cancer) cell lines were cultured in Dulbecco's modified Eagle's medium (DMEM) supplemented with 10% FBS at 37° C. and 5% CO2. All culture mediums contain 100 units/mL penicillin and 0.1 mg/mL streptomycin as antibiotics.
(§2) For cytotoxicity assays, 5×10^3 H596 cells were seeded in each well of the 96-well plate and grown for 24 hr in humidified incubator. […] In the combination assay, cisplatin was dissolved in saline solution and compound 81 was dissolved in DMSO. Equal volume of above solutions was added to each well and cells were incubated for 48 hr. Cells treated with equal volume of DMSO and saline were used as control and designated as 100% viability. The cell viability was measured by CCK-8 solution (Dojindo Molecular Technologies, Inc) as previously described (Chen, J., et al.).
Cytotoxicity assays were run as described in Example 6 using the cisplatin-sensitive NSCLC H460 cell line and the osteosarcoma U2OS cell line.

Row | SMILES | EC50 [nM]
1 | Cc1cnc(-c2ccccc2C(C)C)nc1NCc1ccc(-n2ccnn2)cc1 [Compound 81, N-(4-(1H-1,2,3-triazol-1-yl)benzyl)-2-(2-isopropylphenyl)-5-methylpyrimidin-4-amine] | > 10000

Same assay, conditions: alone; read-out: EC50 of killing U2OS cells

Row | SMILES | EC50 [nM]
2 | N.N.[Cl][Pt][Cl] [cisplatin, reference compound] | 629

Test system: H596 cells
Experiment: Cytotoxicity assay in H596 cells (CCK-8 cell viability)
Assay type: cell-based, human
Conditions: Homo sapiens, NCI-H596; alone, 48 hr; read-out: EC50 of killing H596 cells
Description: as §1, §2

Row | SMILES | EC50 [nM]
3 | Cc1cnc(-c2ccccc2C(C)C)nc1NCc1ccc(-n2ccnn2)cc1 [Compound 81, N-(4-(1H-1,2,3-triazol-1-yl)benzyl)-2-(2-isopropylphenyl)-5-methylpyrimidin-4-amine] | > 10000

Same assay, conditions: alone, 48 hr; read-out: EC50 of killing H596 cells

Row | SMILES | EC50 [nM]
4 | N.N.[Cl][Pt][Cl] [cisplatin, reference compound] | 486

Test system: USP1/UAF1 cellular activity in HEK293T cells
Experiment: PCNA and FANCD2 monoubiquitination in HEK293T cells (Western blot)
Assay type: cell-based, human
Conditions: 30 μM compound 81, 6 hr, as compared to control
Description: (§3) HEK293T or H596 cells were plated in 10 cm dishes and synchronized in S-phase with the double-thymidine block method as described previously (Chen et al., Chemistry & Biology, 2011. 18(11): 1390-400). […] Negative control cells were treated with an equal volume of DMSO and saline (0.9% NaCl). After 6 hr at 37° C., cells were harvested and lysed. Cell extracts were separated on SDS-PAGE and transferred to nitrocellulose membrane. The membranes were then blotted with PCNA antibody or FANCD2 antibody, followed by incubation with HRP-conjugated anti-mouse secondary antibody. Images were quantified in FluorChem Q software (Imgen Technologies).

Row | SMILES | PCNA and FANCD2 monoubiquitination
5 | Cc1cnc(-c2ccccc2C(C)C)nc1NCc1ccc(-n2ccnn2)cc1 [Compound 81, N-(4-(1H-1,2,3-triazol-1-yl)benzyl)-2-(2-isopropylphenyl)-5-methylpyrimidin-4-amine] | increase in PCNA and FANCD2 monoubiquitination

Test system: USP1/UAF1 cellular activity in H596 cells
Experiment: PCNA and FANCD2 monoubiquitination in H596 cells (Western blot)
Assay type: cell-based, human
Conditions: 30 μM compound 81, 6 hr, as compared to control
Description: as §3

Row | SMILES | PCNA and FANCD2 monoubiquitination
6 | Cc1cnc(-c2ccccc2C(C)C)nc1NCc1ccc(-n2ccnn2)cc1 [Compound 81, N-(4-(1H-1,2,3-triazol-1-yl)benzyl)-2-(2-isopropylphenyl)-5-methylpyrimidin-4-amine] | increase in PCNA and FANCD2 monoubiquitination

Molecular target: USP1/UAF1 (Homo sapiens (Human), UniProt O94782)
Sequence (O94782 whole entry): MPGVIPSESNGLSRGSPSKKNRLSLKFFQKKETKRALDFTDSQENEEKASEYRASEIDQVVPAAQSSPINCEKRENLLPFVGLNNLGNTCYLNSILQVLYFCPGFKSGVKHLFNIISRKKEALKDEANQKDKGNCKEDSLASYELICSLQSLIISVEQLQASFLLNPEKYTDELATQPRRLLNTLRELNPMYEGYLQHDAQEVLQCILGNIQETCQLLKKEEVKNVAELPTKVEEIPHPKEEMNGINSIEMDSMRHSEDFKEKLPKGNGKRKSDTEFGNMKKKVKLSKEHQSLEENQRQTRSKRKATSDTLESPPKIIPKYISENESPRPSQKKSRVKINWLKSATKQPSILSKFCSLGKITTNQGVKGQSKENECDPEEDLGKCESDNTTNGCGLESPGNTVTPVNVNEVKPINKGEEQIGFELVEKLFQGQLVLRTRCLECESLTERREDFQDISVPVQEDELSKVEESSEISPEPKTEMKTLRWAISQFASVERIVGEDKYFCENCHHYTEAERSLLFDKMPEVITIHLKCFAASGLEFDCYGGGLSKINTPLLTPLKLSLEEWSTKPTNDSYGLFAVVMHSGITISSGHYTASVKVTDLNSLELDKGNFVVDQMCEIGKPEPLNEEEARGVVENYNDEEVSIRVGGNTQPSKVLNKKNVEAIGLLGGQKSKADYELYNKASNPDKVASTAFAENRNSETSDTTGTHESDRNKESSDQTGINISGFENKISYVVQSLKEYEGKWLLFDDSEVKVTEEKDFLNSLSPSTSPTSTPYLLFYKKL
Sequence (Q8TAF3 whole entry partner): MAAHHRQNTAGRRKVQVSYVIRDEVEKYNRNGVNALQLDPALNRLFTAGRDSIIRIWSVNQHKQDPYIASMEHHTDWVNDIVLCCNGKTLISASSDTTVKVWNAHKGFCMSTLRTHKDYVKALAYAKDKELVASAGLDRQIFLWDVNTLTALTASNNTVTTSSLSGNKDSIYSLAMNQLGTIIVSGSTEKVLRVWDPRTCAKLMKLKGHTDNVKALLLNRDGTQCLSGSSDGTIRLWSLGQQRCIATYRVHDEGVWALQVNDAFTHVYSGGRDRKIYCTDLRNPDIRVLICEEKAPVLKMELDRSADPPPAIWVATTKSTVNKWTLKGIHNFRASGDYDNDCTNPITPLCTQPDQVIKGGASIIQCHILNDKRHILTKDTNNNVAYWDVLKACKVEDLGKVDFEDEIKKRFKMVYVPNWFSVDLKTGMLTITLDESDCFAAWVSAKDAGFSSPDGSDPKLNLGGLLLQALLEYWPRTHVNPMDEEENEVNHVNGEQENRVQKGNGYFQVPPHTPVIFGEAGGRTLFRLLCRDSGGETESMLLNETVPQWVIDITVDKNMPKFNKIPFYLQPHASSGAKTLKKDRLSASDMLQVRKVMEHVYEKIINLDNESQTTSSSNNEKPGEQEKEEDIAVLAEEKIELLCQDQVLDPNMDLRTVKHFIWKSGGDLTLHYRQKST
Experiment: qHTS assay for USP1/UAF1 activity (fluorometric, ubiquitin-rhodamine110)
Assay type: biochemical
Conditions: USP1/UAF1 inhibition, Table 1 of Example 8
Description: USP1/UAF1 activity was monitored in a fluorometric assay using ubiquitin-rhodamine110. Enzymatic reactions were conducted in an assay buffer (50 mM HEPES, pH 7.8, 0.5 mM EDTA, 100 mM NaCl, 1 mM TCEP, 0.1 mg/mL BSA, and 0.01% Tween-20) that contained 1 nM USP1/UAF1. […] The plates were incubated for 15 min to attain equilibrium, and then the enzymatic reaction was initiated by dispensing 1 μL of Ub-Rho solution (150 nM final concentration). The plates were directly transferred to a ViewLux high-throughput CCD imager (PerkinElmer), where kinetic measurements of rhodamine fluorescence were acquired using a 480 nm excitation/540 nm emission filter set. […] All screening operations were performed on a fully integrated robotic system (Kalypsys Inc., San Diego, Calif.) as described elsewhere. Plates containing DMSO only were included approximately every 50 plates throughout the screen to monitor any systematic trend in the assay signal associated with reagent dispenser variation or decrease in enzyme specific activity. PubChem AID: 651605.

Row | SMILES | IC50 [nM]
7 | FC(F)(F)c1ccccc1-c1ncc2c(NCc3cccs3)cccc2n1 [Compound 1] | 7900
8 | FC(F)(F)c1ccccc1-c1ncc2c(NCc3ccccc3)cccc2n1 [Compound 5] | 2400
9 | FC(F)(F)c1ccccc1-c1ncc2c(NCc3ccc(-c4ccccc4)cc3)cccc2n1 [Compound 6] | 3000
10 | FC(F)(F)c1ccccc1-c1ncc2c(NCc3ccc4c(c3)OCO4)cccc2n1 [Compound 7] | 5400
11 | COc1ccc(CNc2cccc3nc(-c4ccccc4C(F)(F)F)ncc23)cc1 [Compound 8] | 3000
12 | Fc1ccc(CNc2cccc3nc(-c4ccccc4C(F)(F)F)ncc23)cc1 [Compound 9] | 2400
13 | FC(F)(F)c1ccccc1-c1ncc2c(NCc3ccc(Cl)cc3)cccc2n1 [Compound 10] | 3000
14 | FC(F)(F)c1ccc(CNc2cccc3nc(-c4ccccc4C(F)(F)F)ncc23)cc1 [Compound 11] | 5400
15 | FC(F)(F)c1ccccc1-c1ncc2c(NCc3ccc(Cl)c(Cl)c3)cccc2n1 [Compound 12] | 11000
16 | Cc1ccc(CNc2cccc3nc(-c4ccccc4C(F)(F)F)ncc23)s1 [Compound 13] | 4300
17 | N#Cc1ccc(CNc2cccc3nc(-c4ccccc4C(F)(F)F)ncc23)cc1 [Compound 14] | 3400
18 | FC(F)(F)c1ccccc1-c1ncc2c(NCC#Cc3cccnc3)cccc2n1 [Compound 15] | 7600
19 | FC(F)(F)c1ccccc1-c1ncc2c(NCc3ccc(-c4ccc(Cl)c(Cl)c4)cc3)cccc2n1 [Compound 16] | 1400
20 | FC(F)(F)c1ccccc1-c1ncc2c(NCc3ccc(-c4ccc(Cl)cc4)cc3)cccc2n1 [Compound 17] | 2200
21 | FC(F)(F)c1ccccc1-c1ncc2c(NCc3ccc(-c4cccc(Cl)c4)cc3)cccc2n1 [Compound 18] | 1700
22 | FC(F)(F)c1ccccc1-c1ncc2c(NCc3ccc(-c4ccncc4)cc3)cccc2n1 [Compound 19] | 480
23 | FC(F)(F)c1ccccc1-c1ncc2c(NCc3ccc(-c4cccnc4)cc3)cccc2n1 [Compound 20] | 610
24 | FC(F)(F)c1ccccc1-c1ncc2c(NCc3ccc(-c4cccnc4)cc3)cccc2n1 [Compound 21] | 1900
25 | FC(F)(F)c1cc(-c2ccc(CNc3cccc4nc(-c5ccccc5C(F)(F)F)ncc34)cc2)ccc1Cl [Compound 22] | 2200
26 | FC(F)(F)c1ccccc1-c1ncc2c(NCc3ccc(N4CCOCC4)cc3)cccc2n1 [Compound 23] | 7600
27 | FC(F)(F)c1cc(-c2ccc(CNc3cccc4nc(-c5ccccc5C(F)(F)F)ncc34)cc2)ccn1 [Compound 24] | 4300
28 | FC(F)(F)c1ccccc1-c1ncc2c(NCc3ccc(C4CCCCC4)cc3)cccc2n1 [Compound 25] | 5800

Same assay, conditions: USP1/UAF1 inhibition, Table 3

Row | SMILES | IC50 [nM]
29 | CC(C)c1ccccc1-c1nc(NCc2ccc(-c3ccccc3)cc2)c2sccc2n1 [Compound 50] | 120
30 | CC(C)c1ccccc1-c1nc(NCc2ccc(-c3ccccc3)cc2)c2ccsc2n1 [Compound 51] | 240
31 | CC(C)c1ccccc1-c1nc(NCc2ccc(-c3ccccc3)cc2)c2nc[nH]c2n1 [Compound 52] | 2120
32 | CC(C)c1ccccc1-c1nc2c(c(NCc3ccc(-c4ccccc4)cc3)n1)CCC2 [Compound 53] | 1500
33 | CC(C)c1ccccc1-c1nc(NCc2ccc(-c3ccccc3)cc2)c2cccn2n1 [Compound 54] | 220
34 | CC(C)c1ccccc1C1=NC2CNCCC2C(NCc2ccc(-c3ccccc3)cc2)=N1 (stereo not drawn) [Compound 55] | 480
35 | CC(C)c1ccccc1C1=NC2CCCC2C(NCc2ccc(-c3ccccc3)cc2)=N1 (stereo not drawn) [Compound 56] | 140
36 | CC(C)c1ccccc1C1=NC2C=COC2C(NCc2ccc(-c3ccccc3)cc2)=N1 (stereo not drawn) [Compound 57] | 150
37 | CC(C)c1ccccc1C1=NCCC(NCc2ccc(-c3ccccc3)cc2)=N1 [Compound 58] | 120
38 | CCc1cnc(-c2ccccc2C(C)C)nc1NCc1ccc(-c2ccccc2)cc1 [Compound 60] | 43
39 | CC(C)c1ccccc1-c1ncc(F)c(NCc2ccc(-c3ccccc3)cc2)n1 [Compound 61] | 61
40 | CC(C)c1ccccc1-c1ncc(N)c(NCc2ccc(-c3ccccc3)cc2)n1 [Compound 62] | 270
41 | CC(C)c1ccccc1-c1ncc(N(C)C)c(NCc2ccc(-c3ccccc3)cc2)n1 [Compound 63] | 150
42 | CSc1cnc(-c2ccccc2C(C)C)nc1NCc1ccc(-c2ccccc2)cc1 [Compound 64] | 86
43 | Cc1cc(NCc2ccc(-c3ccccc3)cc2)nc(-c2ccccc2C(C)C)n1 [Compound 65] | 480
44 | Cc1nc(-c2ccccc2C(C)C)nc(NCc2ccc(-c3ccccc3)cc2)c1C [Compound 66] | 140

Same assay, conditions: USP1/UAF1 inhibition, Table 4

Row | SMILES | IC50 [nM]
45 | Cc1cccc(CNc2nc(-c3ccccc3C(C)C)ncc2C)c1 [Compound 67] | 140
46 | Cc1cnc(-c2ccccc2C(C)C)nc1NCc1cccnc1 [Compound 68] | 2200
47 | Cc1cnc(-c2ccccc2C(C)C)nc1NCc1cccs1 [Compound 69] | 220
48 | Cc1cccc(C(CO)Nc2nc(-c3ccccc3C(C)C)ncc2C)c1 (stereo not drawn) [Compound 70] | 1100
49 | Cc1cnc(-c2ccccc2C(C)C)nc1NCC1CCN(C)CC1 [Compound 71] | 30000
50 | Cc1ccc(-c2ccc(CNc3nc(-c4ccccc4C(C)C)ncc3C)cc2)cn1 [Compound 72] | 43
51 | Cc1cnc(-c2ccccc2C(C)C)nc1NCc1ccc(-c2ccnc(C(F)(F)F)c2)cc1 [Compound 73] | 380
52 | Cc1cnc(-c2ccccc2C(C)C)nc1NCC1CCN(c2cccnc2)CC1 [Compound 74] | 48
53 | Cc1ccc(N2CCC(CNc3nc(-c4ccccc4C(C)C)ncc3C)CC2)cn1 [Compound 75] | 2200
54 | Cc1cnc(-c2ccccc2C(C)C)nc1NCC1CCN(c2cnccn2)CC1 [Compound 76] | 120
55 | Cc1cnc(-c2ccccc2C(C)C)nc1NCC1CC(c2cccnc2)C1 (stereo not drawn) [Compound 77] | 6800
56 | Cc1cnc(-c2ccccc2C(C)C)nc1NCC1CCN(c2cccnc2)C1 (stereo not drawn) [Compound 78] | 480
57 | Cc1cnc(-c2ccccc2C(C)C)nc1NCc1ccc(-c2ccc(F)nc2)cc1 [Compound 79] | 61
58 | Cc1cnc(-c2ccccc2C(C)C)nc1NCc1ccc(C2CCCNC2)cc1 (stereo not drawn) [Compound 80] | 7600
59 | Cc1cnc(-c2ccccc2C(C)C)nc1NCc1ccc(-c2cnn[nH]2)cc1 [Compound 82] | 240
60 | Cc1cnc(-c2ccccc2C(C)C)nc1NCc1ccc(-c2nnn[nH]2)cc1 [Compound 83] | 7600
61 | Cc1cnc(-c2ccccc2C(C)C)nc1NCc1ccc(C(N)=O)cc1 [Compound 84] | 6800
62 | Cc1cnc(-c2ccccc2C(C)C)nc1NCC1CCN(C2COC2)CC1 [Compound 85] | 15000
63 | Cc1cnc(-c2ccccc2C(C)C)nc1NCc1ccc(-c2cccnc2)cc1 [Compound 86] | 61
64 | Cc1cnc(-c2ccccc2C(C)C)nc1NCc1ccc(-c2cc[nH]n2)cc1 [Compound 88] | 150
65 | Cc1cnc(-c2ccccc2C(C)C)nc1NC1(c2ccc(-c3cccnc3)cc2)CC1 [Compound 89] | 34
66 | Cc1cnc(-c2ccccc2C(C)C)nc1NC(C)(C)c1ccc(-c2cccnc2)cc1 [Compound 90] | 190
